Results from PubChem BioAssay (NCI).
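Results reflect a 48-hour exposure of cells in 96-well plates to compound at five concentrations. GI50 = concentration required for 50% inhibition of growth. At the TGI there is no net growth.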

Assays:
Assay in all cases: growth of human tumour cells (NCI), 48 h
[1] = system: 786-0 renal
[2] = system: A498 renal
[3] = system: A549 NSCLC
[4] = system: ACHN renal
[5] = system: BT-549 breast
[6] = system: CAKI-1 renal
[7] = system: CCRF-CEM leukemia
[8] = system: COLO 205 colon
[9] = system: DU-145 prostate
[10] = system: EKVX NSCLC
[11] = system: HCC-2998 colon
[12] = system: HCT-116 colon
[13] = system: HCT-15 colon
[14] = system: HL-60(TB) leukemia
[15] = system: HOP-62 NSCLC
[16] = system: HOP-92 NSCLC
[17] = system: HS 578T breast
[18] = system: HT29 colon
[19] = system: IGROV1 ovarian
[20] = system: K-562 leukemia
[21] = system: KM12 colon
[22] = system: LOX IMVI melanoma
[23] = system: M14 melanoma
[24] = system: MALME-3M melanoma
[25] = system: MCF7 breast
[26] = system: MDA-MB-231 breast
[27] = system: MDA-MB-435
[28] = system: MOLT-4 leukemia
[29] = system: NCI-H226 lung
[30] = system: NCI-H23 lung
[31] = system: NCI-H460 lung
[32] = system: NCI-H522 lung
[33] = system: NCI/ADR-RES ovarian
[34] = system: OVCAR-3 ovarian
[35] = system: OVCAR-4 ovarian
[36] = system: OVCAR-5 ovarian
[37] = system: OVCAR-8 ovarian
[38] = system: PC-3 prostate
[39] = system: RPMI-8226 leukemia
[40] = system: RXF 393 renal
[41] = system: SF-268 CNS
[42] = system: SF-295 CNS
[43] = system: SK-MEL-28 melanoma
[44] = system: SK-MEL-5 melanoma
[45] = system: SK-OV-3 ovarian
[46] = system: SN12C renal
[47] = system: SNB-19 CNS
[48] = system: SNB-75 CNS
[49] = system: SR leukemia
[50] = system: SW-620 colon
[51] = system: T-47D breast
[52] = system: TK-10 renal
[53] = system: U251 CNS
[54] = system: UACC-257 melanoma
[55] = system: UO-31 renal
[56] = system: SF-539 CNS
[57] = system: SK-MEL-2 melanoma
[58] = system: UACC-62 melanoma

Structure (SMILES): Cc1cc2nc(C(Cl)Cl)nc(-c3ccc(Cl)cc3)n2n1
- GI50 [1]: 4.93 µM
- TGI [1]: > 100 µM
- GI50 [2]: 1.09 µM
- TGI [2]: 2.65 µM
- GI50 [3]: 0.448 µM
- TGI [3]: 3.28 µM
- GI50 [4]: 0.386 µM
- TGI [4]: 2.24 µM
- GI50 [5]: 2.75 µM
- TGI [5]: > 100 µM
- GI50 [6]: 0.798 µM
- TGI [6]: 4.11 µM
- GI50 [7]: 2.83 µM
- TGI [7]: > 100 µM
- GI50 [8]: 0.603 µM
- TGI [8]: 2.67 µM
- GI50 [9]: 0.268 µM
- TGI [9]: 0.827 µM
- GI50 [10]: 1.6 µM
- TGI [10]: 4.3 µM
- GI50 [11]: 0.788 µM
- TGI [11]: 2.33 µM
- GI50 [12]: 0.566 µM
- TGI [12]: > 33.1 µM
- GI50 [13]: 0.745 µM
- TGI [13]: 3.47 µM
- GI50 [14]: 1.11 µM
- GI50 [15]: 0.864 µM
- TGI [15]: 4.27 µM
- GI50 [16]: 1.53 µM
- TGI [16]: 4.66 µM
- GI50 [17]: 1.34 µM
- TGI [17]: 4.6 µM
- GI50 [18]: 0.36 µM
- TGI [18]: 3.99 µM
- GI50 [19]: 1.38 µM
- TGI [19]: 5.28 µM
- GI50 [20]: 1.39 µM
- TGI [20]: > 28.5 µM
- GI50 [21]: 0.414 µM
- TGI [21]: 1.74 µM
- GI50 [22]: 3.95 µM
- TGI [22]: > 100 µM
- GI50 [23]: 1.31 µM
- TGI [23]: 3.25 µM
- GI50 [24]: 1.48 µM
- TGI [24]: 2.99 µM
- GI50 [25]: 0.465 µM
- TGI [25]: 5.1 µM
- GI50 [26]: 1.23 µM
- TGI [26]: 4.21 µM
- GI50 [27]: 1.26 µM
- TGI [27]: 2.79 µM
- GI50 [28]: 1.01 µM
- TGI [28]: > 100 µM
- GI50 [29]: 3.28 µM
- TGI [29]: > 100 µM
- GI50 [30]: 0.479 µM
- TGI [30]: 2.42 µM
- GI50 [31]: 0.304 µM
- TGI [31]: 1.09 µM
- GI50 [32]: 1.56 µM
- TGI [32]: 5.23 µM
- GI50 [33]: 0.682 µM
- TGI [33]: 3.89 µM
- GI50 [34]: 0.491 µM
- TGI [34]: 1.87 µM
- GI50 [35]: 1.06 µM
- TGI [35]: 4.38 µM
- GI50 [36]: 1.85 µM
- TGI [36]: 5.56 µM
- GI50 [37]: 0.964 µM
- TGI [37]: > 100 µM
- GI50 [38]: 1.33 µM
- TGI [38]: 4.16 µM
- GI50 [39]: 1.36 µM
- TGI [39]: 6.45 µM
- GI50 [40]: 0.764 µM
- TGI [40]: 2.27 µM
- GI50 [41]: 1.34 µM
- TGI [41]: 4.47 µM
- GI50 [42]: 1.3 µM
- TGI [42]: 4.75 µM
- GI50 [43]: 1.63 µM
- TGI [43]: 3.38 µM
- GI50 [44]: 1.68 µM
- TGI [44]: 3.48 µM
- GI50 [45]: 2.11 µM
- TGI [45]: 7 µM
- GI50 [46]: 2.64 µM
- TGI [46]: > 100 µM
- GI50 [47]: 1.05 µM
- TGI [47]: 4.64 µM
- GI50 [48]: 1.1 µM
- TGI [48]: 4.34 µM
- GI50 [49]: 0.372 µM
- TGI [49]: > 21.1 µM
- GI50 [50]: 0.433 µM
- TGI [50]: 2.93 µM
- GI50 [51]: 2.19 µM
- TGI [51]: > 26.3 µM
- GI50 [52]: 1.85 µM
- TGI [52]: 5.21 µM
- GI50 [53]: 0.509 µM
- TGI [53]: 3.7 µM
- GI50 [54]: 2.3 µM
- TGI [54]: 5.49 µM
- GI50 [55]: 1.42 µM
- TGI [55]: 3.92 µM

Structure (SMILES): COc1cc2c(c(OC)c1O)C(=O)C(OC)C(c1ccc(O)c(O)c1)O2 (stereo not drawn)
- GI50 [1]: 1.05 µM
- TGI [1]: > 100 µM
- GI50 [2]: 0.228 µM
- TGI [2]: 0.812 µM
- GI50 [3]: 1.31 µM
- TGI [3]: > 100 µM
- GI50 [4]: 0.662 µM
- TGI [4]: > 100 µM
- GI50 [5]: 0.362 µM
- TGI [5]: > 100 µM
- GI50 [6]: 0.336 µM
- TGI [6]: > 100 µM
- GI50 [7]: 0.428 µM
- TGI [7]: > 31 µM
- GI50 [8]: 23.5 µM
- TGI [8]: > 82.8 µM
- GI50 [9]: 0.374 µM
- TGI [9]: > 100 µM
- GI50 [10]: 15.2 µM
- TGI [10]: > 100 µM
- GI50 [11]: 0.645 µM
- TGI [11]: > 100 µM
- GI50 [12]: 0.396 µM
- TGI [12]: > 100 µM
- GI50 [13]: 0.0776 µM
- TGI [13]: > 100 µM
- GI50 [14]: 0.072 µM
- TGI [14]: 3.62 µM
- GI50 [15]: 0.712 µM
- TGI [15]: > 100 µM
- GI50 [16]: 0.697 µM
- TGI [16]: > 28.9 µM
- GI50 [17]: 0.0889 µM
- TGI [17]: 46.1 µM
- GI50 [18]: 6.1 µM
- TGI [18]: > 67.7 µM
- GI50 [19]: 0.553 µM
- TGI [19]: > 100 µM
- GI50 [20]: 0.048 µM
- TGI [20]: > 100 µM
- GI50 [21]: 0.515 µM
- TGI [21]: > 100 µM
- GI50 [22]: 0.352 µM
- TGI [22]: > 100 µM
- GI50 [23]: 0.155 µM
- TGI [23]: > 100 µM
- GI50 [24]: 48.3 µM
- TGI [24]: > 100 µM
- GI50 [25]: 0.391 µM
- TGI [25]: > 100 µM
- GI50 [26]: 0.554 µM
- TGI [26]: > 100 µM
- GI50 [27]: 0.126 µM
- GI50 [28]: 0.482 µM
- TGI [28]: > 100 µM
- GI50 [29]: 4.8 µM
- TGI [29]: > 100 µM
- GI50 [30]: 0.385 µM
- TGI [30]: > 100 µM
- GI50 [31]: 0.364 µM
- TGI [31]: > 100 µM
- GI50 [32]: 0.0599 µM
- GI50 [33]: 0.203 µM
- TGI [33]: > 100 µM
- GI50 [34]: 0.343 µM
- TGI [34]: > 32.7 µM
- GI50 [35]: > 100 µM
- TGI [35]: > 100 µM
- GI50 [36]: 2.27 µM
- TGI [36]: > 100 µM
- GI50 [37]: 0.484 µM
- TGI [37]: > 100 µM
- GI50 [38]: 0.599 µM
- TGI [38]: > 50.6 µM
- GI50 [39]: 0.285 µM
- TGI [39]: 12.9 µM
- GI50 [40]: 0.305 µM
- TGI [40]: > 100 µM
- GI50 [41]: 1.5 µM
- TGI [41]: > 100 µM
- GI50 [42]: 0.471 µM
- TGI [42]: 4.95 µM
- GI50 [56]: 0.0798 µM
- TGI [56]: 4.56 µM
- GI50 [57]: 1.28 µM
- TGI [57]: > 100 µM
- GI50 [43]: 10.1 µM
- TGI [43]: > 100 µM
- GI50 [44]: 0.757 µM
- TGI [44]: 3.26 µM
- GI50 [45]: 8.23 µM
- TGI [45]: > 100 µM
- GI50 [46]: 0.426 µM
- TGI [46]: > 100 µM
- GI50 [47]: 0.275 µM
- TGI [47]: > 100 µM
- GI50 [48]: 0.0405 µM
- TGI [48]: > 79.3 µM
- GI50 [49]: 0.0689 µM
- TGI [49]: > 100 µM
- GI50 [50]: 0.234 µM
- TGI [50]: > 100 µM
- GI50 [51]: 0.513 µM
- TGI [51]: 92.4 µM
- GI50 [52]: 40 µM
- TGI [52]: > 100 µM
- GI50 [53]: 0.418 µM
- TGI [53]: > 100 µM
- GI50 [54]: > 100 µM
- TGI [54]: > 100 µM
- GI50 [58]: 0.345 µM
- TGI [58]: > 100 µM
- GI50 [55]: 0.53 µM
- TGI [55]: > 100 µM
